For 59 molecules, Ki results are on record in patent publication US20110077237A1, “KINASE INHIBITORS” (VERTEX PHARMACEUTICALS INCORPORATED, priority 2007, published 2011).

What all share (assay type): biochemical
The target in one experiment is PKC theta (Homo sapiens, UniProt Q04759). Briefly: PKC Theta I coupled-enzyme (NADH absorbance) kinase assay. The settings on record: 18 nM PKC theta, 240 μM ATP, 30° C., absorbance at 340 nm. On the procedure: An assay buffer solution was prepared which consisted of 100 mM HEPES (pH 7.5), 10 mM MgCl2, 25 mM NaCl, 0.1 mM EDTA and 0.01% Brij. […] To 60 μL of this enzyme buffer, in a 384 well plate, was added 2 μL of VRT stock solution in DMSO. The mixture was allowed to equilibrate for 10 mins at 30° C. […] Ki values were calculated from initial rate data by non-linear regression using the Prism software package (Prism 4.0a, Graphpad Software, San Diego, Calif.).

Another experiment concerns the target PKC delta kinase (Homo sapiens, UniProt Q05655). Briefly: PKC Delta coupled-enzyme kinase assay. The settings on record: 46 nM PKC delta, 150 μM ATP, 30° C.; read-out: Ki PKC delta. The method, boiled down:
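Assay buffer was 100 mM HEPES pH 7.5, 10 mM MgCl2, 25 mM NaCl, 0.1 mM EDTA, 0.01% Brij. Enzyme buffer was equilibrated with compound in DMSO for 10 min at 30 °C. Ki values were derived by non-linear regression of initial rate data.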

The target of a further experiment is PKC alpha kinase (Homo sapiens, UniProt P17252). In words: PKC Alpha coupled-enzyme kinase assay. Conditions: 4.5 nM PKC alpha, 130 μM ATP, 30° C. The procedure: An assay buffer solution was prepared which consisted of 100 mM HEPES (pH 7.5), 10 mM MgCl2, 25 mM NaCl, 0.1 mM EDTA, 100 μM CaCl2 and 0.01% Brij. […] To 16 μL of this enzyme buffer, in a 384 well plate, was added 1 μL of VRT stock solution in DMSO. The mixture was allowed to equilibrate for 10 mins at 30° C. The enzyme reaction was initiated by the addition of 16 μL stock ATP solution prepared in assay buffer to a final assay concentration of 130 μM. Initial rate data was determined from the rate of change of absorbance at 340 nm (corresponding to stoichiometric consumption of NADH) using a Molecular Devices Spectramax plate reader (Sunnyvale, Calif.) over 15 mins at 30° C. For each Ki determination 12 data points covering the VRT concentration range of 0-20 μM were obtained in duplicate (DMSO stocks were prepared from an initial 10 mM VRT stock with subsequent 1:2 serial dilutions). Ki values were calculated from initial rate data by non-linear regression using the Prism software package (Prism 4.0a, Graphpad Software, San Diego, Calif.).

Chain of PKC delta kinase (Q05655 whole entry): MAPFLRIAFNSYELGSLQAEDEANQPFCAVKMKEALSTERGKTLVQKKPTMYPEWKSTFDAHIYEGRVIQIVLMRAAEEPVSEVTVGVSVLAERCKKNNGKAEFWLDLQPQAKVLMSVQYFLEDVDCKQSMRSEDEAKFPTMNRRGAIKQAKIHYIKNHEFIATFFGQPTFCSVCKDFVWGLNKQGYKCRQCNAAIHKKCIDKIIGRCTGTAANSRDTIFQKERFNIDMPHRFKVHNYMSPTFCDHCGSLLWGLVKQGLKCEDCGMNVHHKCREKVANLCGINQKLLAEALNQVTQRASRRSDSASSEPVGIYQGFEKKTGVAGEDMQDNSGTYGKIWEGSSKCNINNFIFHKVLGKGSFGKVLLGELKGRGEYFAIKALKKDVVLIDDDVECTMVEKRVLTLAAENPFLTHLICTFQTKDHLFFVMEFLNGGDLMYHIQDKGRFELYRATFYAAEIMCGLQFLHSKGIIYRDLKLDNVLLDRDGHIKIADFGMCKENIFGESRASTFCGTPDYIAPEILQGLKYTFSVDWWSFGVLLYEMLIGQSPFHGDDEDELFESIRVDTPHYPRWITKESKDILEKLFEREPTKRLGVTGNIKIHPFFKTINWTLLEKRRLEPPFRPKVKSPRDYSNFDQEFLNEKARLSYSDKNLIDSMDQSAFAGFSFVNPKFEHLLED
Chain of PKC theta (Q04759 whole entry): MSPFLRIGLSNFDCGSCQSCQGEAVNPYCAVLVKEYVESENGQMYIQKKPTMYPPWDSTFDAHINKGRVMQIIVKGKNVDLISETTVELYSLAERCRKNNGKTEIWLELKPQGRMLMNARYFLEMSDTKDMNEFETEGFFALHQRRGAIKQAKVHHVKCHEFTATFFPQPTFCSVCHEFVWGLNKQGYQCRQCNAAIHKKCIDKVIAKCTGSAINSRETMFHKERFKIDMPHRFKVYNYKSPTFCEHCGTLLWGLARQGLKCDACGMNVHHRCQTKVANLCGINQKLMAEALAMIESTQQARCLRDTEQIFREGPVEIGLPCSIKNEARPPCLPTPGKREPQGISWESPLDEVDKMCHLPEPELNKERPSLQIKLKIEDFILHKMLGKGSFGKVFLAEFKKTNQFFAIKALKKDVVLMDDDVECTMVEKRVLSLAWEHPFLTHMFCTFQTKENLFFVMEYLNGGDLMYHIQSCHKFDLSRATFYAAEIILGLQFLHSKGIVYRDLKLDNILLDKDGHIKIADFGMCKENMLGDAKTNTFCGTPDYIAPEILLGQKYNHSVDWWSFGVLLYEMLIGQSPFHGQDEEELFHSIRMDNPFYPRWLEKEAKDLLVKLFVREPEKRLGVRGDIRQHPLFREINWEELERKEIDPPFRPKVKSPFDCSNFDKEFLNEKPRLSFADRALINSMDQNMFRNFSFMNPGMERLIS

Consider `Nc1ncccc1C(=O)c1cccc(N2CCNC(Cc3cnc[nH]3)C2)n1` (stereo not shown) [compound 304], for which the Ki was 500 to 2800 nM at PKC theta, 500 to 2800 nM at PKC delta kinase and more than 2800 nM at PKC alpha kinase.
`CNCCN(C)c1ccc(C(F)(F)F)c(C(=O)c2cccnc2N)n1` [compound 380]: the Ki at PKC theta, on PKC delta kinase and at PKC alpha kinase was 500 to 2800 nM throughout.
With `CC(C)(C)C(O)C(=O)N1CCCN(c2cccc(C(=O)c3cccnc3N)n2)CC1` (stereo not shown) [compound 41], the Ki at PKC theta was 500 to 2800 nM; at PKC delta kinase it was more than 2800 nM.
For `Nc1ncccc1C(=O)c1nc(N2CCC(N)C2)ccc1C(F)(F)F` (stereo not shown) [compound 369], the Ki at PKC theta, at PKC delta kinase and at PKC alpha kinase was 500 to 2800 nM each time.
As to `NC(=O)CNc1ccc(C(F)(F)F)c(C(=O)c2cccnc2N)n1` [compound 386], the Ki at PKC theta, on PKC delta kinase and on PKC alpha kinase was 500 to 2800 nM in each case.
For `CNc1cnc(N)c(C(=O)c2cccc(N3CCCNCC3)n2)c1` [compound 220], the Ki at PKC theta and at PKC alpha kinase was 500 to 2800 nM throughout.
Take `NCCOc1ccc(C(F)(F)F)c(C(=O)c2cccnc2N)n1` [compound 378]: the Ki at PKC theta, at PKC delta kinase and at PKC alpha kinase was 500 to 2800 nM each time.
Take `Nc1ncccc1C(=O)c1cccc(N2CCCN(C(=O)c3ccccc3)CC2)n1` [compound 32]: the Ki on PKC theta was 500 to 2800 nM; at PKC delta kinase it was more than 2800 nM.
Regarding `Nc1ncccc1C(=O)c1cccc(N2CCCN(C(=O)Oc3ccccc3Cl)CC2)n1` [compound 15], the Ki at PKC theta was 500 to 2800 nM.
For `Cc1ccc(C(=O)c2cccnc2N)nc1N1CCNCC1` [compound 236], on PKC theta, the Ki is 500 to 2800 nM.
As to `Nc1ncccc1C(=O)c1nc(N2CCNCC2)ccc1Cc1ccccc1` [compound 417], the Ki at PKC theta, on PKC delta kinase and on PKC alpha kinase was 500 to 2800 nM throughout.
`CN(CC(O)c1ccccc1)c1cccc(C(=O)c2cc(Br)cnc2N)n1` (stereo not shown) [compound 124] yielded a Ki at PKC theta of 500 to 2800 nM.
Molecule `C=Cc1cnc(N)c(C(=O)c2cccc(N3CCCN(C(=O)OC(C)(C)C)CC3)n2)c1` [compound 60] yielded a Ki at PKC theta of 500 to 2800 nM.
Molecule `Nc1ncccc1C(=O)c1cccc(N2CCN[C@@H](Cc3ccccc3)C2)n1` [compound 215] registered a Ki at PKC theta of 500 to 2800 nM.
On to `NCCCCNc1ccc(C(F)(F)F)c(C(=O)c2cccnc2N)n1` [compound 374], for which the Ki on PKC theta, on PKC delta kinase and at PKC alpha kinase was 500 to 2800 nM each time.
Molecule `Nc1ncc(NCc2ccccc2)cc1C(=O)c1cccc(N2CCCNCC2)n1` [compound 190] came in with a Ki at PKC theta of 500 to 2800 nM.
`CN(C)CCN(Cc1ccccc1)c1cccc(C(=O)c2cc(Br)cnc2N)n1` [compound 143] returned a Ki on PKC theta of 500 to 2800 nM.
As to `N#CCCN1CCN(c2cccc(C(=O)c3cc(Br)cnc3N)n2)CC1` [compound 96], at PKC theta, the Ki fell in the range of 500 to 2800 nM.
On to `Nc1ncccc1C(=O)c1nc(NC2CCNC2)ccc1C(F)(F)F` (stereo not shown) [compound 376], for which the Ki at PKC theta, on PKC delta kinase and at PKC alpha kinase was 500 to 2800 nM in each case.
Molecule `Nc1ncc(Br)cc1C(=O)c1cccc(N2CCCC(c3ccccc3)C2)n1` (stereo not shown) [compound 145] yielded a Ki at PKC theta of 500 to 2800 nM.
On to `CC(C)C[C@H]1CN(c2ccc(C#CC3CC3)c(C(=O)c3cccnc3N)n2)CCN1` [compound 407], for which the Ki on PKC theta, at PKC delta kinase and on PKC alpha kinase was 500 to 2800 nM throughout.
At PKC theta, `NC(=O)C1CCCN(c2cccc(C(=O)c3cc(Br)cnc3N)n2)C1` (stereo not shown) [compound 122] came in with a Ki of 500 to 2800 nM.
Turning to `COC(=O)N1CCCN(c2cccc(C(=O)c3cc(Br)cnc3N)n2)CC1` [compound 69], the Ki on PKC theta lay within 500 to 2800 nM.
Still for that read-out and setting: the result for `Nc1ncccc1C(=O)c1cccc(C2CCNCC2)n1` [compound 257] reads 500 to 2800 nM.
As for `Nc1ncccc1C(=O)c1nc(NC2CNC2)ccc1C(F)(F)F` [compound 375], the Ki at PKC theta, at PKC delta kinase and on PKC alpha kinase was 500 to 2800 nM in each case.
Turning to `Cc1ccc(C(=O)c2cccnc2N)nc1N1CCCNCC1` [compound 229], the Ki on PKC theta lay within 500 to 2800 nM.
In the case of `Cc1cc(C(=O)c2cccnc2N)nn1C1CCCNCC1` (stereo not shown) [compound 217], the Ki on PKC theta is 500 to 2800 nM; on PKC delta kinase, 500 to 2800 nM; at PKC alpha kinase, more than 2800 nM.
On to `Nc1ncccc1C(=O)c1cccc(N2CCCN(C(=O)Oc3ccccc3)CC2)n1` [compound 52], for which, on PKC theta, the Ki lay within 500 to 2800 nM.
The same measure, in the same setting: under `CNC1CCN(c2cccc(C(=O)c3cccnc3N)n2)CC1` [compound 159] stands 500 to 2800 nM.
For the molecule `Nc1ncccc1C(=O)c1nc(NC2CCCC(N)C2)ccc1C(F)(F)F` (stereo not shown) [compound 389], the Ki on PKC theta, at PKC delta kinase and on PKC alpha kinase was 500 to 2800 nM in each case.
With `Nc1ncccc1C(=O)c1cccc(N2CCN[C@H](Cc3ccccc3)C2)n1` [compound 250], on PKC theta, the Ki is 500 to 2800 nM.
In turn, `CCN(Cc1ccccc1)c1cccc(C(=O)c2cc(Br)cnc2N)n1` [compound 142] showed a Ki at PKC theta of 500 to 2800 nM.
On PKC theta, `Nc1ncc(C2=CCCCC2)cc1C(=O)c1cccc(N2CCCNCC2)n1` [compound 185] gave a Ki of 500 to 2800 nM.
In the case of `CC(C)C(CO)Nc1ccc(C(F)(F)F)c(C(=O)c2cccnc2N)n1` (stereo not shown) [compound 399], the Ki at PKC theta, at PKC delta kinase and at PKC alpha kinase was 500 to 2800 nM throughout.
`Nc1ncccc1C(=O)c1cccc(N2CCCN(C(=O)CC3CCCCC3)CC2)n1` [compound 39]: the Ki on PKC theta was 500 to 2800 nM; at PKC delta kinase, more than 2800 nM.
In turn, `Cc1cc(C(=O)c2cccnc2N)nc(N2CCCNCC2)c1` [compound 189] gave a Ki at PKC theta of 500 to 2800 nM.
In turn, `CN1CCN(c2cccc(C(=O)c3cccnc3N)n2)CC1` [compound 216] had a Ki on PKC theta of 500 to 2800 nM.
`CC(C)N(Cc1ccccc1)C(=O)c1ccc(C(=O)c2cccnc2N)s1` [compound 48]: the Ki at PKC theta is 500 to 2800 nM.
In the case of `Nc1ncccc1C(=O)c1nc(N2CCCN(C(=O)CC(F)(F)F)CC2)cs1` [compound 95], the Ki at PKC theta lay in the range of 500 to 2800 nM.
The same measure, in the same setting: under `Nc1ncc(Br)cc1C(=O)c1cc(N2CCCNCC2)cs1` [compound 83] stands 500 to 2800 nM; under `CC(C)(O)C#Cc1cnc(N)c(C(=O)c2cccc(N3CCCNCC3)n2)c1` [compound 147], 500 to 2800 nM.
Molecule `Nc1ncccc1C(=O)c1ccc(Cl)c(N2CCCNCC2)n1` [compound 242] registered a Ki on PKC theta of 500 to 2800 nM.
As to `Nc1ncc(-c2ccccc2O)cc1C(=O)c1cccc(N2CCNC(c3ccccc3)C2)n1` (stereo not shown) [compound 259], the Ki at PKC theta fell in the range of 500 to 2800 nM.
At PKC theta, `Cc1cn(C2CCCNCC2)nc1C(=O)c1cccnc1N` (stereo not shown) [compound 212] returned a Ki of 500 to 2800 nM.
On the same count and under the same terms, the result for `Nc1ncccc1C(=O)c1ccnc(N2CCCNCC2)n1` [compound 111] reads 500 to 2800 nM; that for `Nc1ncccc1C(=O)c1cccc(N2CCN(C(=O)CC(F)(F)F)CC2)n1` [compound 224], 500 to 2800 nM.
Turning to `COC(=O)N1CCCN(c2cccc(C(=O)c3cccnc3N)n2)CC1` [compound 9], the Ki at PKC theta and at PKC delta kinase was 500 to 2800 nM throughout.
As to `Nc1ncccc1C(=O)c1cccc(N2CCCN(C(=O)C3CC3)CC2)n1` [compound 36], the Ki on PKC theta is 500 to 2800 nM.
`Nc1ncc(Br)cc1C(=O)c1cccc(N2CCN(CCO)CC2)n1` [compound 97] registered a Ki on PKC theta of 500 to 2800 nM.
With `Nc1ncccc1C(=O)c1cccc(N2CCC(NC(=O)CC(F)(F)F)CC2)n1` [compound 129], on PKC theta, the Ki was 500 to 2800 nM.
Take `Nc1ncccc1C(=O)c1cc(N2CCCNCC2)cs1` [compound 84]: on PKC theta, the Ki was 500 to 2800 nM.
With `Nc1ncc(Br)cc1C(=O)c1cccc(N2CCN(C3CCCC3)CC2)n1` [compound 144], at PKC theta, the Ki is 500 to 2800 nM.
Turning to `Nc1ncc(Br)cc1C(=O)c1cccc(N2CCNC(=O)C2)n1` [compound 196], at PKC theta, the Ki lay within 500 to 2800 nM.
`Nc1ncccc1C(=O)c1cccc(N2CCC(N)C2)n1` (stereo not shown) [compound 85] yielded a Ki at PKC theta of 500 to 2800 nM.
Same read-out and setting: the result for `Nc1ncc(Br)cc1C(=O)c1cccc(NCCN2CCCCC2)n1` [compound 141] reads 500 to 2800 nM; that for `Nc1ncccc1C(=O)c1csc(N2CCCNCC2)n1` [compound 125], 500 to 2800 nM.
Molecule `Nc1ncc(Br)cc1C(=O)c1cccc(NC[C@H]2CCCC[C@@H]2O)n1` [compound 174] had a Ki at PKC theta of 500 to 2800 nM.
Regarding `CC(C)(O)C(=O)N1CCCN(c2cccc(C(=O)c3cccnc3N)n2)CC1` [compound 19], the values for the Ki on PKC theta and on PKC delta kinase were 500 to 2800 nM and more than 2800 nM, respectively.
Consider `Nc1ncccc1C(=O)c1cc(N2CCNCC2)ncc1F` [compound 319], for which, at PKC theta, the Ki is 500 to 2800 nM.
